≈ marks a conversion by molar mass, not a printed value. Read-outs that look alike come from different tables or passages of the source. Marks after values point to notes of the source that are not given here. Square brackets hold non-standard residues; d marks the D form. Peptide text beside a SMILES is read from it. N(1-naphthylmethyl)Gly = O=C(O)CNCc1cccc2ccccc12; 2Nal = N[C@@H](Cc1ccc2ccccc2c1)C(=O)O; d1Nal = N[C@H](Cc1cccc2ccccc12)C(=O)O; N(4-MeBn)Gly = Cc1ccc(CNCC(=O)O)cc1; dNle = CCCC[C@@H](N)C(=O)O; Nle = CCCC[C@H](N)C(=O)O; NBuGly = CCCCNCC(=O)O
Columns and labels:
[1] = system: E. coli, 30235; format: cell-based, Escherichia coli; details: 30235, 18 h
Description: (§1) For antibacterial spectrum the following strains were used: Corynebacterium auriscanis, 31551, (54 C6, dog, ear, 2013); Enterococcus faecalis, 27404, (17 C7, dog, wound, 2011); Enterococcus faecium, 30951, (24 C1, dog, ear, 2013); Streptococcus canis, 26740-1, (14 H1, dog, ear, 2010); Staphylococcus aureus, 27266, (16 G9, dog, skin, 2010); Staphylococcus aureus, 27266, (16 G9, dog, skin, 2010); Staphylococcus pseudintermedius 22963, (3 B9, dog, 2007). Acinetobacter baumannii, 27065, (16 D1, dog, wound, 2010); E. coli, 30235, 23 A6, dog, wound, 2012; Klebsiella pneumoniae, 26233, (11 H5, dog, wound, 2010); Pasteurella canis, 31096, (24 C8, dog, skin, 2013); Proteus mirabilis, 25178, (9 A4, dog, ear, 2009); Pseudomonas aeruginosa 26314, 12 C5, dog, urine, 2010). MIC determination was performed by broth microdilution according to the Clinical and Laboratory Standard Institute (CLSI, […]-A3, 2008)[62]. In brief, each bacterial strain was diluted to concentration of 5 × 10^5 CFU/mL in Mueller Hinton broth II (MHB II) media (Oxoid) and added to a two-fold serial dilution of peptides and peptide-peptoid hybrids concentrations ranging from 1 to 64 μg/ml in 96-well plates (Nunc Internationals, Rochester, NY). The MICs were determined as a lowest concentration showing no visible growth after incubation for 18 hours at 37 °C. Experiments were performed in triplicates on two different days.

[2] = system: S. pseudintermedius strains; format: cell-based, Staphylococcus pseudintermedius; details: for MIC S. pseudintermedius strain 26071 / MIC S. pseudintermedius strain 26092-2 / MIC S. pseudintermedius strain 26959 / MIC S. pseudintermedius strain 27364 / MIC S. pseudintermedius strain 27382 / MIC S. pseudintermedius strain 31524 / MIC S. pseudintermedius strain 33228 / MIC S. pseudintermedius strain 35890 / MIC S. pseudintermedius strain 37526-1 / MIC S. pseudintermedius strain 37535-1 / MIC S. pseudintermedius strain 38637: 18 h
Description: Activity of B1 was tested on 50P. aeruginosa isolates and 57S. pseudintermedius isolates (including 7 MRSP) that had been isolated in the diagnostic laboratory Sund Vet Diagnostik (University of Copenhagen) from various infections in dogs between 2009 and 2011. Representative MRSP (C22963), MSSA, and P. aeruginosa (26314) were used for testing the first set of B1 analogues.
For testing the selectivity of 23 and 26 against clinical isolates of S. pseudintermedius vs S. aureus the following strains were used.
MIC determination was performed by broth microdilution according to the Clinical and Laboratory Standard Institute (CLSI, M31-A3, 2008)[62]. In brief, each bacterial strain was diluted to concentration of 5 × 10^5 CFU/mL in Mueller Hinton broth II (MHB II) media (Oxoid) and added to a two-fold serial dilution of peptides and peptide-peptoid hybrids concentrations ranging from 1 to 64 µg/ml in 96-well plates (Nunc Internationals, Rochester, NY). The MICs were determined as a lowest concentration showing no visible growth after incubation for 18 hours at 37 °C. Experiments were performed in triplicates on two different days.

[3] = system: human red blood cells; format: cell-based; details: for EC50: red cells of human, 1 h
[4] = format: cell-based, human; details: human
[5] = system: Enterococcus faecium, 30951; format: cell-based; details: 30951, 18 h
Description: as §1

[6] = system: Acinetobacter baumannii, 27065; format: cell-based; details: 27065, 18 h
Description: as §1

[7] = system: Streptococcus canis, 26740-1; format: cell-based; details: 18 h
Description: as §1

[8] = system: Pasteurella canis, 31096; format: cell-based
Description: as §1

[9] = system: Proteus mirabilis, 25178; format: cell-based; details: 25178, 18 h
Description: as §1

[10] = system: Enterococcus faecalis, 27404; format: cell-based; details: 27404, 18 h
Description: as §1

[11] = system: Corynebacterium auriscanis, 31551; format: cell-based; details: 18 h
Description: as §1

[12] = system: Klebsiella pneumoniae, 26233; format: cell-based; details: 26233, 18 h
Description: as §1

[13] = system: MRSP C22963; format: cell-based, Staphylococcus pseudintermedius
Summary of the method: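 Broth microdilution per CLSI M31-A3 on canine clinical isolates plus reference MRSP C22963, MSSA and P. aeruginosa 26314; 5 × 10^5 CFU/mL in MHB II with two-fold dilutions from 1 to 64 µg/ml. MIC = lowest concentration without visible growth after 18 hours at 37 °C; triplicates on two days.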

SMILES | MIC E. coli [1] [µg/mL] | Haemolysis EC10 [3] [µM] | EC50 [3] [µM] | hemolysis at 1 h, 150 µM [4] [%] | MIC Enterococcus faecium [5] [µg/mL] | MIC Acinetobacter baumannii [6] [µg/mL] | MIC Streptococcus canis [7] [µg/mL] | MIC Proteus mirabilis [9] [µg/mL] | MIC Enterococcus faecalis [10] [µg/mL] | MIC Corynebacterium auriscanis [11] [µg/mL] | MIC Klebsiella pneumoniae [12] [µg/mL] | MIC Staphylococcus pseudintermedius ([13]; 18 h) [µg/mL] | Minimum Inhibitory Concentration MRSP C22963 ([13]; Table 1) | MIC S. pseudintermedius strain 26071 [2] [µg/mL] | MIC S. pseudintermedius strain 26092-2 [2] [µg/mL] | MIC S. pseudintermedius strain 26959 [2] [µg/mL] | MIC S. pseudintermedius strain 27364 [2] [µg/mL] | MIC S. pseudintermedius strain 27382 [2] [µg/mL] | MIC S. pseudintermedius strain 31524 [2] [µg/mL] | MIC S. pseudintermedius strain 33228 [2] [µg/mL] | other results
CCCCN(CC(=O)N[C@@H](CCCCN)C(=O)N(CC(=O)N(CC(=O)N(CC(N)=O)Cc1cccc2ccccc12)Cc1ccc(C)cc1)Cc1cccc2ccccc12)C(=O)[C@H](CCCCN)NC(=O)[C@@H](N)CCCCN [B1, Lys-Lys-(NBu)Gly-Lys-(N1-Nal)Gly-(N4-MeBn)Gly-(N1-Nal)Gly] (H-KK[NBuGly]K[N(1-naphthylmethyl)Gly][N(4-MeBn)Gly][N(1-naphthylmethyl)Gly]-NH2) | 64 (≈ 59.8 µM) | 64 | 230 | 32 | 16 (≈ 14.9 µM) | 64 (≈ 59.8 µM) | 4 (≈ 3.74 µM) | >64 | 64 (≈ 59.8 µM) | 4 (≈ 3.74 µM) | >64 | 2 (≈ 1.87 µM) | 2–4^b µg/ml |  |  |  |  |  |  |  | MICs against a panel of 57 S. pseudintermedius isolates from canine infections ([2]; irrespective of methicillin resistance (7 MRSP, 50 MSSP)): 2 to 4 µg/mL; MIC Pasteurella canis ([8]; 18 h): 8 µg/mL (≈ 7.47 µM)
CCCC[C@H](NC(=O)[C@H](CCCCN)NC(=O)[C@H](CCCCN)NC(=O)[C@@H](N)CCCCN)C(=O)N[C@@H](Cc1ccc2ccccc2c1)C(=O)N[C@@H](Cc1ccccc1)C(=O)N[C@@H](Cc1ccc2ccccc2c1)C(N)=O [Compound 23, Lys-Lys-Lys-Nle-(2-Nal)Ala-Phe-(2-Nal)Ala] (H-KKK[Nle][2Nal]F[2Nal]-NH2) | 32 (≈ 30.3 µM) | 14 | 104 | 59 | 64 (≈ 60.6 µM) | 64 (≈ 60.6 µM) | 16 (≈ 15.1 µM) | >64 | >64 | 8 (≈ 7.57 µM) | >64 | 4 (≈ 3.79 µM) |  | 8 (≈ 7.57 µM) | 8 (≈ 7.57 µM) | 4 (≈ 3.79 µM) | 2 (≈ 1.89 µM) | 4 (≈ 3.79 µM) | 8 (≈ 7.57 µM) | 2 (≈ 1.89 µM) | MIC S. pseudintermedius strain 35890 [2]: 2 µg/mL (≈ 1.89 µM); MIC S. pseudintermedius strain 37526-1 [2]: 1 to 2 µg/mL; MIC S. pseudintermedius strain 37535-1 [2]: 16 µg/mL (≈ 15.1 µM); MIC S. pseudintermedius strain 38637 [2]: 16 µg/mL (≈ 15.1 µM); MIC Pasteurella canis ([8]; 31096, 24 C8, dog, skin, 2013): > 64 µg/mL; Minimum Inhibitory Concentration MRSP C22963 ([13]; 18 h): 2 to 4 µg/mL
CCCC[C@@H](NC(=O)[C@H](CCCCN)NC(=O)[C@H](CCCCN)NC(=O)[C@@H](N)CCCCN)C(=O)N[C@H](Cc1cccc2ccccc12)C(=O)N[C@H](Cc1ccccc1)C(=O)N[C@H](Cc1cccc2ccccc12)C(N)=O [Compound 26, Lys-Lys-Lys-nle-(1-Nal)ala-phe-(1-Nal)ala] (H-KKK[dNle][d1Nal][dF][d1Nal]-NH2; N-terminus assumed) | 32 (≈ 30.3 µM) |  | 63 | 56 | >64 | >64 | >64 | >64 | 64 (≈ 60.6 µM) | 32 (≈ 30.3 µM) | >64 | 4 (≈ 3.79 µM) | 4 to 8 µg/mL | 4 (≈ 3.79 µM) | 4 (≈ 3.79 µM) | 4 (≈ 3.79 µM) | 2 (≈ 1.89 µM) | 2 (≈ 1.89 µM) | 32 (≈ 30.3 µM) | 2 (≈ 1.89 µM) | MIC S. pseudintermedius strain 35890 [2]: 4 µg/mL (≈ 3.79 µM); MIC S. pseudintermedius strain 37526-1 [2]: 4 µg/mL (≈ 3.79 µM); MIC S. pseudintermedius strain 37535-1 [2]: 16 µg/mL (≈ 15.1 µM); MIC S. pseudintermedius strain 38637 [2]: 8 µg/mL (≈ 7.57 µM); MIC Pasteurella canis ([8]; 31096, 24 C8, dog, skin, 2013): > 64 µg/mL

From PMC6403271, “Characterization, mechanism of action and optimization of activity of a novel peptide-peptoid hybrid against bacterial pathogens involved in canine skin infections” (Scientific Reports, 2019)
